The source made the active and inactive calls. The calls are words filed in the database; no cut-off is given here.
Legend:
[1] = target: T1, Beta-galactosidase (Aspergillus niger) (UniProt P29853); test: Inhibitory activity against beta-galactosidase from Aspergillus niger at a concentration of 1 mM; No activity
T1 sequence (whole entry): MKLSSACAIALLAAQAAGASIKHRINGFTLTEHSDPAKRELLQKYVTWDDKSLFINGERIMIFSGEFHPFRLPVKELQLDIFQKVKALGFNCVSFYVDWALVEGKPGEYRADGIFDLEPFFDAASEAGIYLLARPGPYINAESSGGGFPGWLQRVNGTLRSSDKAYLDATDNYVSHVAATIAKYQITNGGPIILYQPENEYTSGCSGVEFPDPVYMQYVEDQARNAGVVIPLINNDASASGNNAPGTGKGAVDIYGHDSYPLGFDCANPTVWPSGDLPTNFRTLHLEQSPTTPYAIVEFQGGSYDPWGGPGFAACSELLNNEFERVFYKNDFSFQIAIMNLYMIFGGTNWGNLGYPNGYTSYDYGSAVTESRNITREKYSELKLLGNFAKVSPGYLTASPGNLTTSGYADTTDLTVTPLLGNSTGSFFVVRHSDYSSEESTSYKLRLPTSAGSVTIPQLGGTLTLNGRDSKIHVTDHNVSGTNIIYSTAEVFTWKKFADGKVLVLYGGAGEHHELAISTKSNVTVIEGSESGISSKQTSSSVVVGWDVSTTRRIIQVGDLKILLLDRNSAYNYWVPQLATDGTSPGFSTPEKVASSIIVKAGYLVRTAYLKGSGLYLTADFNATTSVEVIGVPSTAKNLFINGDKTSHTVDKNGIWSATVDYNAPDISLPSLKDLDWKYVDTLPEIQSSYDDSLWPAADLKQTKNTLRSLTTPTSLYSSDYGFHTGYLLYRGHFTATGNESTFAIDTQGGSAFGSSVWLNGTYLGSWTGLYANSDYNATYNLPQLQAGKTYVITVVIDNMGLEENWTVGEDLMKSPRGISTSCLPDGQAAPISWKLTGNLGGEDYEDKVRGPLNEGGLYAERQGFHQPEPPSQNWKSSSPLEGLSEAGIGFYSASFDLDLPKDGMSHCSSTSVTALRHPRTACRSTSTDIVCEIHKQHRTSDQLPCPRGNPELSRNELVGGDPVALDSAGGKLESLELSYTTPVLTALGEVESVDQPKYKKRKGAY

[2] = target: Beta-glucosidase A (Caldicellulosiruptor saccharolyticus) (UniProt P10482); test: Inhibitory activity against beta-glucosidase from Caldocellum saccharolyticum at a concentration of 1 mM; No activity
Target sequence in this assay (P10482 whole entry, looked up): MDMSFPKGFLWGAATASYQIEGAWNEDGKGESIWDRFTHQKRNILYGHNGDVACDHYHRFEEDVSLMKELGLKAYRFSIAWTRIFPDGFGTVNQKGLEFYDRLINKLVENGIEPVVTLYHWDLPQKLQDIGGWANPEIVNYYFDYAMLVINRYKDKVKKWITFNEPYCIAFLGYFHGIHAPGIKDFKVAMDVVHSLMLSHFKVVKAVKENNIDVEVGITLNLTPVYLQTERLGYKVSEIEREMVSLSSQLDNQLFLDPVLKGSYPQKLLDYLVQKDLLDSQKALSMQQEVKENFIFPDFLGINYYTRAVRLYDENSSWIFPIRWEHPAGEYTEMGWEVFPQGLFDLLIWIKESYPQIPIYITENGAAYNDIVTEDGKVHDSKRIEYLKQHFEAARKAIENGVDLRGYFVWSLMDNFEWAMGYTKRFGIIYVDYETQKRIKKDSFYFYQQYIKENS

[3] = Inhibitory activity against beta-galactosidase from Aspergillus oryzae at a concentration of 1 mM; No activity
[4] = Inhibitory activity against beta-galactosidase from jack beans at a concentration of 1 mM; No activity; settings: Canavalia ensiformis
[5] = target: T1, Beta-galactosidase (Aspergillus niger); settings: 1 mM
[6] = target: Beta-glucosidase A (Caldicellulosiruptor saccharolyticus) (UniProt P10482); settings: 1 mM
Target sequence in this assay (P10482 whole entry): as the sequence (P10482 whole entry, looked up) above

[7] = target: Beta-glucosidase A (Caldicellulosiruptor saccharolyticus, UniProt P10482); test: Inhibition of beta-glucosidase from Caldocellum saccharolyticum
[8] = target: T2, Beta-galactosidase (Aspergillus niger, UniProt P29853); test: Inhibition of beta-galactosidase from Aspergillus niger
T2 sequence (P29853 whole entry): T1 sequence (whole entry)

[9] = target: Beta-glucosidase A (Caldicellulosiruptor saccharolyticus) (UniProt P10482); test: Inhibitory activity against beta-glucosidase from Caldocellum saccharolyticum at a concentration of 1 mM; No activity
Target sequence in this assay (P10482 whole entry): as the sequence (P10482 whole entry, looked up) above

[10] = Inhibitory activity against beta-galactosidase from jack beans […]; No activity; settings: Canavalia ensiformis
[11] = Inhibitory activity against rice Alpha-galactosidase at concentration 1 mM

Chain of Beta-glucosidase A (P10482 whole entry): as the sequence (P10482 whole entry, looked up) above

With CC1(C)O[C@@H]2O[C@H]3C(C=O)=NO[C@H]3[C@@H]2O1 the Activity [1] was “inactive”, the Activity [2] was “inactive” and the Activity [3] was “inactive”. For the same molecule, the Activity [4] was “inactive”.

With CC1(C)O[C@@H]2O[C@H]3C(CO)=NO[C@H]3[C@@H]2O1 the inhibition [5] was 14%, the inhibition [6] was 67% and the IC50 [7] was 550 µM. The Ki [7] was 5 µM, the IC50 [8] was 43 µM and the Ki [8] was 18 µM.

In the case of COCOCC1=NO[C@H]2[C@@H]3OC(C)(C)O[C@@H]3O[C@@H]12, the Activity [1] is reported as “inactive”, the Activity [3] is reported as “inactive” and the Activity [9] is reported as “inactive”. For the same molecule, the Activity [4] was “inactive”.

For COCC1=NO[C@H]2[C@@H]3OC(C)(C)O[C@@H]3O[C@@H]12, the Activity [1] was “inactive”, the Activity [3] was “inactive” and the Activity [9] was “inactive”. For the same molecule, the Activity [4] was “inactive”.

For CCOC(OCC)C1=NO[C@H]2[C@H](O)C(O)O[C@@H]12 (stereo not given in full), the Activity [1] was “inactive”, the Activity [2] was “inactive” and the Activity [3] was “inactive”. The Activity [4] was “inactive”.

For CC1(C)O[C@@H]2O[C@H]3C(C4N[C@@H](c5ccccc5)[C@H](c5ccccc5)N4)=NO[C@H]3[C@@H]2O1, the Activity [1] was “inactive”, the Activity [2] was “inactive” and the Activity [10] was “inactive”. The Activity [3] was “inactive”.

With OCC1=NO[C@H]2[C@H](O)C(O)O[C@@H]12 (stereo not given in full) the Activity [1] was “inactive”, the Activity [3] was “inactive” and the Activity [9] was “inactive”. For the same molecule, the Activity [4] was “inactive” and the inhibition [11] was 59%.

With CC1(C)O[C@H]2O[C@@H]3C(C4N[C@@H](c5ccccc5)[C@H](c5ccccc5)N4)=NO[C@@H]3[C@H]2O1 the Activity [1] was “inactive”, the Activity [2] was “inactive” and the Activity [3] was “inactive”. The Activity [4] was “inactive”.
